Reference: patent publication US5726162A (priority 1996, dated 1998)
Where two headings read alike, the source gives them in different places.

Columns and labels:
[1] = test system: Magnaporthe grisea (Pyricularia oryzae); test: whole plant or invertebrate; type: in vivo, Magnaporthe grisea (Pyricularia oryzae) on M201 rice plants; conditions: Pyricularia oryzae, 144 h, read-out: % Control RB
fungal inoculum = test: organism not typed; type: cell-based; conditions: read-out: % growth inhibition
[2] = test system: Thanatephorus cucumeris (Rhizoctonia solani); test: In vivo test b) Rice Sheath Blight (RSB), 24 hour preapplication protectant, % control; conditions: for pest or weed control at 200 ppm: read-out: % Control RSB
Procedure: Compounds were tested at 200 ppm as a twenty-four hour preapplication protectant test prior to inoculation.
b) Rice Sheath Blight (RSB)
Thanatephorus cucumeris (Rhizoctonia solani) mycelia were grown for six days in potato dextrose broth in shake culture. Drained mycelial mats were blended with an approximately equal weight of rice flour and five parts water. This slurry was dispensed onto the soil surface of pots containing rice seedlings previously treated with experimental compounds. The plants were placed in a mist chamber at 25°-28° C. for 48 hours. Following two more days at 25° C. and 70-90% relative humidity the plants were evaluated for percent disease control compared to check plants.

Candida albicans = test: Activity against Candida albicans in microtiter plates, % control of growth; type: cell-based
Procedure: The activity against Candida albicans was determined using the following test protocol.
Conidia and mycelium from the Candida albicans culture maintained on potato dextrose agar plates were lightly scraped off into yeast extract-dextrose broth (YDB) so that mostly conidia was used as inoculum. The conidial suspsension was strained through a double layer of cheesecloth to remove mycelial clumps. The inoculum mixture was placed in microtiter plates using a 12-tipped pipet. 175 microliters were placed in each well of the microliter plates and the plates were placed in the refrigerator overnight. There were two replications.
The compounds to be tested were dissolved in 1:1 acetone:methanol and 100 ppm of the compound solution were placed in a well of the prepared microtiter plates.
The microtiter plates were incubated for 7 days at room temperature after addition of the compounds. Percent control was visually estimated using a microtiter plate reading mirror. Readings were made at 1, 2, 3, and/or 7 days after treatment.

fungal mycelium = test: organism not typed; type: cell-based; conditions: read-out: % growth inhibition
[3] = 24 h, 1 day after treatment, read-out: % control of growth +1
[4] = 48 h, 2 days after treatment, read-out: % control of growth +2
[5] = 72 h, 3 days after treatment, read-out: % control of growth +3

Row | Structure (SMILES) | pest or weed control at 200 ppm [1] | pest or weed control at 200 ppm ([2]; 200 ppm, protectant) | further results
1 | CCCCN1N=C(c2ccc(Cl)cc2)CCC1=O [Compound 7] | 0% | 0% | inhibition at 100 ppm (fungal inoculum): 94.4%
2 | C=CC#CCN1N=C(c2ccc(Cl)cc2)CCC1=O [Compound 56, 6-(4-chlorophenyl)-2-(3'-vinyl-2'-propynyl)-4,5-dihydropyridazinone] | 100% |  | inhibition of growth at 100 ppm (Candida albicans; [3]): 100%; inhibition of growth at 100 ppm (Candida albicans; [4]): 100%; inhibition of growth at 100 ppm (Candida albicans; [5]): 100%; inhibition at 1 ppm (fungal inoculum): 100%
3 | CCC#CCN1N=C(c2ccc(Cl)cc2)CC=C1Cl [Compound 157, 6-(4-chlorophenyl)-3-chloro-2-(2'-pentyn-1-yl)-2,5-dihydropyridazine] | 10% | 0% | inhibition at 10 ppm (fungal mycelium): 100%
4 | C#CCN1N=C(c2ccc(Cl)cc2)CCC1=O [Compound 6, 6-(4-chlorophenyl)-2-propargyl-4,5-dihydropyridazinone] | 0% | 0% | inhibition at 100 ppm (fungal inoculum): 91.5%
5 | O=C1CCC(c2ccc(Cl)cc2)=NN1Cc1ccccc1 [Compound 10] |  |  | inhibition at 100 ppm (fungal inoculum): 100%; pest or weed control at 200 ppm [2]: 80%
6 | CCC#CCn1cc(-c2ccc(Cl)cc2)cnc1=O [Compound 150] | 99% | 95% | inhibition at 50 ppm (fungal inoculum): 48.2%
7 | CCC#CCn1cc(-c2ccc(Cl)cc2)ccc1=O [Compound 145, 5-(4-chlorophenyl)-1-(2-pentyn-1-yl)-2-pyridinone] | 95% |  | inhibition at 1 ppm (fungal inoculum): 96%; pest or weed control at 100 ppm ([2]; 100 ppm, protectant): 0%
8 | CC#CCCN1N=C(c2ccc(Cl)cc2)CCC1=O [Compound 21] | 0% | 0% | inhibition at 100 ppm (fungal inoculum): 45.8%
9 | CCC#CCN1N=C(c2cc(F)c(Cl)c(F)c2)CCC1=O [Compound 90] | 0% | 95% | inhibition at 1 ppm (fungal mycelium): 100%
10 | CCC#CCN1N=C(c2ccc(F)c(Cl)c2)CCC1=O [Compound 104] | 0% | 0% | inhibition at 5 ppm (fungal mycelium): 100%
11 | O=C1CCC(c2ccc(Cl)cc2)=NN1CC#CC(F)F [Compound 89] | 95% | 0% | inhibition at 10 ppm (fungal mycelium): 100%
12 | CC#CCN1N=C(c2ccc(Cl)cc2Cl)CCC1=O [Compound 19] | 50% | 0% | inhibition at 100 ppm (fungal inoculum): 96.8%
13 | CCC#CCN1N=C(c2ccc(C)cc2)CCC1=O [Compound 80] | 99% |  | inhibition at 2.5 ppm (fungal mycelium): 100%; pest or weed control at 200 ppm [2]: 0%
14 | C/C=C/C#CCN1N=C(c2ccc(Cl)cc2)CCC1=O [Compound 103] | 95% | 0% | inhibition at 1 ppm (fungal mycelium): 100%
15 | CC#CCN1N=C(c2cccnc2)CCC1=O [Compound 132] | 0% | 0% | inhibition at 200 ppm (fungal mycelium): 91.8%
16 | CC#CCN1N=C(C=Cc2ccc(C(C)(C)C)cc2)CCC1=O [Compound 107] | 0% | 0% | inhibition at 200 ppm (fungal mycelium): 83.7%
17 | CCC#CCN1N=C2c3ccc(Cl)cc3C(C)C2CC1=O (stereo not drawn) [Compound 155] | 100% | 90% | inhibition at 10 ppm (fungal mycelium): 92%
18 | COc1ccc(C2=NN(CCCO)C(=O)CC2)cc1 [Compound 2] | 0% | 0% | inhibition at 100 ppm (fungal inoculum): 0%
19 | O=C1CCC(c2ccc(Cl)c(Cl)c2)=NN1CCCO [Compound 5] | 0% | 50% | inhibition at 100 ppm (fungal inoculum): 75%
20 | C/C=C\C#CCN1N=C(c2ccc(Cl)cc2)CCC1=O [Compound 102] | 99% | 0% | inhibition at 1 ppm (fungal mycelium): 100%

Row | Structure (SMILES) | pest or weed control at 200 ppm [1] | pest or weed control at 200 ppm ([2]; 200 ppm, protectant) | further results
21 | CCC(O)CN1N=C(c2ccc(Cl)cc2)CCC1=O (stereo not drawn) [Compound 4] | 0% | 0% | inhibition at 100 ppm (fungal inoculum): 26.7%
22 | CCC(O)CN1N=C(c2ccc(Cl)c(Cl)c2)CCC1=O (stereo not drawn) [Compound 3] | 0% | 0% | inhibition at 100 ppm (fungal inoculum): 53.6%
23 | C#CC=CCN1N=C(c2ccc(Cl)cc2)CCC1=O [Compound 84] | 95% | 0% | inhibition at 50 ppm (fungal inoculum): 75.8%
24 | O=C1CCC(c2ccc(Cl)cc2)=NN1Cc1cccc(Cl)c1 [Compound 105] | 75% | 0% | inhibition at 10 ppm (fungal mycelium): 33.3%
25 | CC#CCN1N=C(c2ccc(F)cc2)CCC1=O [Compound 13] | 50% | 50% | inhibition at 10 ppm (fungal inoculum): 87%
26 | CC#CCN1N=C(c2ccccc2)CCC1=O [Compound 9] | 0% | 0% | inhibition at 100 ppm (fungal inoculum): 94.4%
27 | CC#CCn1nc(-c2ccc(Cl)cc2)ccc1=O [Compound 108] | 95% | 50% | inhibition at 5 ppm (fungal inoculum): 100%
28 | CC#CCN1N=C(c2ccc(OC)cc2)CCC1=O [Compound 11, 6-(4-methoxyphenyl)-2-(2'-butynyl)-4,5-dihydropyridazinone] | 0% | 0% | inhibition at 10 ppm (fungal inoculum): 87.7%
29 | CC(C)C#CCN1N=C(c2ccc(Cl)cc2)CCC1=O [Compound 34] | 90% |  | inhibition of growth at 100 ppm (Candida albicans; [3]): 100%; inhibition of growth at 100 ppm (Candida albicans; [4]): 100%; inhibition of growth at 100 ppm (Candida albicans; [5]): 100%; inhibition at 10 ppm (fungal inoculum): 100%
30 | CC=CCN1N=C(c2ccc(Cl)cc2)CCC1=O [Compound 8] | 0% | 0% | inhibition at 100 ppm (fungal inoculum): 96.2%
31 | CCC#CCn1nc(-c2ccc(F)c(Cl)c2)ccc1=O [Compound 129] | 0% | 0% | inhibition at 1 ppm (fungal mycelium): 100%
32 | CC#CCN1N=C(c2ccc(OC)c(F)c2)CCC1=O [Compound 20] | 0% | 0% | inhibition at 10 ppm (fungal inoculum): 100%
33 | O=C1CCC(c2ccc(Cl)cc2)=NN1C(=O)c1ccccc1 [Compound 16] | 0% | 50% | inhibition at 50 ppm (fungal inoculum): 12.7%
34 | CC(C)(C)N1N=C(c2ccc(Cl)cc2)CCC1=O [Compound 15, 6-(4-chlorophenyl)-4,5-dihydro-2-t-butylpyridazinone] | 0% | 50% | inhibition at 50 ppm (fungal inoculum): 37.1%
35 | CCC#CCN1N=C(c2ccc(Cl)cc2)CC=C1n1cncn1 [Compound 159] | 0% | 0% | inhibition at 1 ppm (fungal mycelium): 100%
36 | CCC#CCN1N=C(c2ccc(Cl)cc2)CC=C1Br [Compound 160] | 0% | 95% | inhibition at 1 ppm (fungal mycelium): 100%
37 | CC=CC#CCN1N=C(c2ccc(Cl)cc2)CCC1=O [Compound 101] | 75% | 0% | inhibition at 1 ppm (fungal mycelium): 100%
38 | CCC#CCN1N=C(c2ccc(-c3ccccc3)cc2)CCC1=O [Compound 79] | 100% | 75% | inhibition at 50 ppm (fungal mycelium): 17%
39 | CCC#CCn1nc(-c2ccc(Cl)cc2)c2ccccc2c1=O [Compound 154] | 50% | 0% | inhibition at 10 ppm (fungal mycelium): 16%
